Source: publication PMC8958511, “Development of Sulfamoylated 4-(1-Phenyl-1H-1,2,3-triazol-4-yl)phenol Derivatives as Potent Steroid Sulfatase Inhibitors for Efficient Treatment of Breast Cancer” (Journal of Medicinal Chemistry, 2022)
Read-outs that look alike come from different tables or passages of the source.

Key:
[1] = biological target: T1, STS isolated from the human placenta (Homo sapiens, UniProt P08842); assay: radioisotope enzymatic assay with STS isolated from human placenta and [3H]E1S; assay type: biochemical; details: 0.5 μM inhibitor concentration, substrate [3H]E1S, 3 nM, triplicate; for remaining activity at 0.5 µM: read-out: residual STS activity [%]
T1 construct: radioisotope enzymatic assay using STS isolated from the human placenta; from tissue; host or cells: human placenta
T1 sequence (P08842 22-583): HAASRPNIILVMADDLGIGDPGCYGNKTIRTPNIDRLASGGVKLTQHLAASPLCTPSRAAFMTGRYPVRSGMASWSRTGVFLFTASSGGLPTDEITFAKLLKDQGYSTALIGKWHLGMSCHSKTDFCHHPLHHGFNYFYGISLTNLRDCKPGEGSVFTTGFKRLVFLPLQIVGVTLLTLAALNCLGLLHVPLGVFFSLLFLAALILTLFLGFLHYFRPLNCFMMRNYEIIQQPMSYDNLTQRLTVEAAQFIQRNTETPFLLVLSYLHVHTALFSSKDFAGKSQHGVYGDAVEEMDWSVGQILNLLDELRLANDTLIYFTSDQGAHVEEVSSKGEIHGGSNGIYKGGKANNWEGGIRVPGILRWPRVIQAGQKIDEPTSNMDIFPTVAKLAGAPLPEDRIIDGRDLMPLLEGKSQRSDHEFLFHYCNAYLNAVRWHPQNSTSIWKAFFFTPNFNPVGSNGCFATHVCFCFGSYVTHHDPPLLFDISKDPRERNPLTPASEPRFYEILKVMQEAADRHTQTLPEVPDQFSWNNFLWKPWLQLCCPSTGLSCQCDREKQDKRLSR
Protocol: The inhibitory potency of the synthesized compounds was examined in two ways, including an enzymatic assay and the radioisotope cellular test. The enzymatic assay was performed using the STS enzyme isolated from human placenta and using radiolabeled [^3H]E1S as a substrate.
The total volume of the reaction mixture was 100 μL. […] After incubation, the reaction mixture (90 μL) was collected from each well, and the product formed by STS hydrolysis was extracted with toluene (0.5 mL). STS activity was measured using a MicroBeta radioluminometer (PerkinElmer). Enzymatic assays were carried out in triplicate.

STS in MCF-7 cells = biological target: T2, STS in MCF-7 cells (Homo sapiens, UniProt P08842); assay: radioisotope cellular assay with [3H]E1S in MCF-7 cells; assay type: cell-based; details: for remaining activity at 0.001 µM / remaining activity at 0.01 µM / remaining activity at 0.1 µM: MCF7, 20 h; for remaining activity at 0.001 µM: read-out: residual STS activity [%] 1 nM; for remaining activity at 0.01 µM: read-out: residual STS activity [%] 10 nM; for remaining activity at 0.1 µM: read-out: residual STS activity [%] 100 nM
T2 construct: The radioisotope cellular assay was performed using the MCF-7 cell line; endogenous in cells; host or cells: MCF-7
T2 sequence (P08842 22-583): T1 sequence (P08842 22-583)
Protocol: All compounds were initially tested for their in cell inhibitory action at a 100 nM concentration.
The inhibitory potency of the synthesized compounds was examined in two ways, including an enzymatic assay and the radioisotope cellular test. […] The radioisotope cellular assay was performed using the MCF-7 cell line in the presence of radiolabeled [^3H]E1S.
The evaluation of the inhibitory effect of each compound with breast cancer cells was performed using a previously described method (27) with some modifications. MCF-7 cells were maintained in Dulbecco’s modified Eagle medium supplemented with 10% fetal bovine serum and cultured in the above medium until 80% confluence. […] After incubation, the medium (0.45 mL) was collected from each well, and the product formed by STS hydrolysis was extracted with toluene (4 mL). STS activity was measured using a MicroBeta radioluminometer (PerkinElmer). Assays with MCF-7 cells were carried out in triplicate.

[2] = assay type: in vivo; details: Table S1, MTD study, 50 mg/kg
Protocol: The mice were thus weighed, and their general health was observed. […] At the end of the study, the mice were sacrificed by dislocation of the cervical vertebrae, and the internal organs were examined macroscopically.
The mice were weighed, and their general health was observed. […] At the end of the MTD study, the autopsy was performed, and the internal organs (liver, kidney, and spleen) were weighed and macroscopically assessed.

[3] = blood morphology, blood biochemistry and organ weights of mice with 67NR tumor
Protocol: At the end of the study, the autopsy of the animals was performed: blood was collected for further analyses of the morphology (Table S2, Supporting Information) and biochemistry (Table S3 and Figure S6, Supporting Information) and for the determination of the plasma estradiol level using the ELISA method.
Mice were injected orthotopically (in the mammary gland fat pad) with 67NR mouse mammary tumor cells derived from in vitro culture (1.5 × 10^5 cells/0.05 mL Hanks fluid/mouse). The growth of tumors has been observed. […] Animals were observed during the next 17 days and euthanized. During observation, body weight and tumor growth were monitored three times a week. The volume of the tumors was calculated according to the following formula: TV = a^2·b/2 [mm^3], (where: a—width and b—length of the tumor). Blood, tumor tissue, and liver were harvested during autopsy for further analyses. Blood aliquots (about 500 μL) were collected in EDTA containing vials for morphology analysis (Mythic 18 analyzer, Orphee), and then, the plasma was collected (centrifuged at 2500g for 15 min at 4 °C within 1 h after collection) for biochemical parameter analysis (Cobas c111, Roche).

[4] = tested on: 67NR mouse mammary tumor cells; assay: antitumor activity in 67NR orthotopic mouse breast carcinoma model; assay type: in vivo, BALB/c mice; details: 50 mg/kg b.w. per os
Protocol: The tumor volume (TV) and body weight were measured three times a week. Results for individual groups are reported in Figure S5, Supporting Information. Based on TV data, the tumor growth inhibition (TGI) was calculated for groups that received compounds and compared to that of the control group. […] The body weight of the treated animals was monitored during the study, and the body weight change (BWC) index was calculated (Figure 4). […] Body weight loss was observed between D2 and D11 and reached 4.5% at most.
The growth of tumors has been observed.

[5] = MCF-7 cells, 1 nM inhibitor, substrate [3H]E1S, 3 nM, triplicate
[6] = MCF-7 cells, 10 nM inhibitor, substrate [3H]E1S, 3 nM, triplicate
[7] = MCF-7 cells, 100 nM inhibitor, substrate [3H]E1S, 3 nM, triplicate
[8] = Table S2, mice with 67NR tumor, 50 mg/kg
[9] = Table S3, plasma, mice with 67NR tumor, 50 mg/kg per os, N=9

Compound: NS(=O)(=O)Oc1ccc(-c2cn(-c3cccc(Br)c3)nn2)cc1 [4c, 4-(1-(3-Bromophenyl)-1H-1,2,3-triazol-4-yl)phenyl Sulfamate]
- remaining activity at 0.5 µM [1]: 24.1 ± 1.2%
- melting point: 212 to 213 °C (dec.)
- remaining activity at 0.001 µM (STS in MCF-7 cells; [5]): 79.4 ± 4.76%
- remaining activity at 0.01 µM (STS in MCF-7 cells; [6]): 39.9 ± 2.19%
- remaining activity at 0.1 µM (STS in MCF-7 cells; [7]): 2.1 ± 0.07%

Compound: NS(=O)(=O)Oc1ccc(-c2cn(-c3cccc(I)c3)nn2)cc1 [4d, 4-(1-(3-Iodophenyl)-1H-1,2,3-triazol-4-yl)phenyl Sulfamate]
- residual STS activity [%] [1]: 13.23 ± 0.66%
- remaining activity at 0.5 µM [1]: 13.2%
- melting point: 228 to 229 °C (dec.)
- remaining activity at 0.001 µM (STS in MCF-7 cells; [5]): 67.5 ± 3.71%
- remaining activity at 0.01 µM (STS in MCF-7 cells; [6]): 31.8 ± 1.59%
- remaining activity at 0.1 µM (STS in MCF-7 cells; [7]): 2 ± 0.11%

Compound: Cc1cccc(-n2cc(-c3ccc(OS(N)(=O)=O)cc3)nn2)c1 [4e, 4-(1-(3-Methylphenyl)-1H-1,2,3-triazol-4-yl)phenyl Sulfamate]
- remaining activity at 0.5 µM [1]: 34.2 ± 1.71%
- melting point: 212 to 213 °C (dec.)
- remaining activity at 0.1 µM (STS in MCF-7 cells; [7]): 3.1 ± 0.12%

Compound: Cc1cc(C)cc(-n2cc(-c3ccc(OS(N)(=O)=O)cc3)nn2)c1 [4f, 4-(1-(3,5-Dimethylphenyl)-1H-1,2,3-triazol-4-yl)phenyl Sulfamate]
- remaining activity at 0.5 µM [1]: 52.5 ± 2.62%
- remaining activity at 0.1 µM (STS in MCF-7 cells; [7]): 10.2 ± 0.61%

Compound: COc1cccc(-n2cc(-c3ccc(OS(N)(=O)=O)cc3)nn2)c1 [4g, 4-(1-(3-Methoxyphenyl)-1H-1,2,3-triazol-4-yl)phenyl Sulfamate]
- remaining activity at 0.5 µM [1]: 43.4 ± 2.17%
- melting point: 210 to 212 °C (dec.)
- remaining activity at 0.1 µM (STS in MCF-7 cells; [7]): 6.8 ± 0.24%

Compound: COc1cc(OC)cc(-n2cc(-c3ccc(OS(N)(=O)=O)cc3)nn2)c1 [4h, 4-(1-(3,5-Dimethoxyphenyl)-1H-1,2,3-triazol-4-yl)phenyl Sulfamate]
- remaining activity at 0.5 µM [1]: 55.1 ± 2.76%
- melting point: 225 to 227 °C (dec.)
- remaining activity at 0.1 µM (STS in MCF-7 cells; [7]): 34.3 ± 1.88%

Compound: CCc1cccc(-n2cc(-c3ccc(OS(N)(=O)=O)cc3)nn2)c1 [4i, 4-(1-(3-Ethylphenyl)-1H-1,2,3-triazol-4-yl)phenyl Sulfamate]
- remaining activity at 0.5 µM [1]: 14.5 ± 0.73%
- melting point: 223 to 225 °C (dec.)
- remaining activity at 0.1 µM (STS in MCF-7 cells; [7]): 2.6 ± 0.08%

Compound: CC(C)c1cccc(-n2cc(-c3ccc(OS(N)(=O)=O)cc3)nn2)c1 [4j, 4-(1-(3-Isopropylphenyl)-1H-1,2,3-triazol-4-yl)phenyl Sulfamate]
- remaining activity at 0.5 µM [1]: 18.1 ± 0.9%
- melting point: 202 to 204 °C (dec.)
- remaining activity at 0.01 µM (STS in MCF-7 cells; [6]): 73.4%
- remaining activity at 0.1 µM (STS in MCF-7 cells; [7]): 2.4 ± 0.12%

Compound: NS(=O)(=O)Oc1ccc(-c2cn(-c3cccc([N+](=O)[O-])c3)nn2)cc1 [4k, 4-(1-(3-Nitrophenyl)-1H-1,2,3-triazol-4-yl)phenyl Sulfamate]
- remaining activity at 0.5 µM [1]: 28.9 ± 1.44%
- melting point: 225 to 226 °C (dec.)
- remaining activity at 0.1 µM (STS in MCF-7 cells; [7]): 5.9 ± 0.32%

Compound: NS(=O)(=O)Oc1ccc(-c2cn(-c3cc(Br)cc(Br)c3)nn2)cc1 [4l, 4-(1-(3,5-Dibromophenyl)-1H-1,2,3-triazol-4-yl)phenyl Sulfamate]
- remaining activity at 0.5 µM [1]: 28.9 ± 1.44%
- melting point: 228 to 229 °C (dec.)
- remaining activity at 0.1 µM (STS in MCF-7 cells; [7]): 8.3 ± 0.4%

Compound: NS(=O)(=O)Oc1ccc(-c2cn(-c3cc(I)cc(I)c3)nn2)cc1 [4m, 4-(1-(3,5-Diiodophenyl)-1H-1,2,3-triazol-4-yl)phenyl Sulfamate]
- residual STS activity [%] [1]: 11.78 ± 0.59%
- remaining activity at 0.5 µM [1]: 11.8%
- melting point: 213 to 216 °C (dec.)
- remaining activity at 0.1 µM (STS in MCF-7 cells; [7]): 18.7%

Compound: NS(=O)(=O)Oc1ccc(-c2cn(-c3ccc(F)cc3)nn2)cc1 [5a]
- remaining activity at 0.01 µM (STS in MCF-7 cells; [6]): 60.2 ± 2.7%
- remaining activity at 0.1 µM (STS in MCF-7 cells; [7]): 1.5 ± 0.05%

Compound: NS(=O)(=O)Oc1ccc(-c2cn(-c3ccccc3)nn2)cc1 [5b]
- remaining activity at 0.01 µM (STS in MCF-7 cells; [6]): 46.6 ± 1.63%
- remaining activity at 0.1 µM (STS in MCF-7 cells; [7]): 1.5 ± 0.05%

Compound: NS(=O)(=O)Oc1ccc(-c2cn(-c3ccccc3C(F)(F)F)nn2)cc1 [5c]
- remaining activity at 0.1 µM (STS in MCF-7 cells; [7]): 5.5 ± 0.3%

Compound: NS(=O)(=O)Oc1ccc(-c2cn(-c3cc(C(F)(F)F)cc(C(F)(F)F)c3)nn2)cc1 [5d]
- remaining activity at 0.1 µM (STS in MCF-7 cells; [7]): 14.7 ± 0.88%

Compound: NS(=O)(=O)Oc1ccc(-c2cn(-c3ccc(F)c(F)c3F)nn2)cc1 [5e]
- GRAN [2]: 11,1±1,9%
- HCT [2]: 42,3±1,3%
- HGB [2]: 15,7±0,5 g/dL
- LIMF [2]: 85,6±2,6%
- MCH [2]: 17,1±0,2 pg
- MCHC [2]: 37,2±0,7 g/dL
- MCV [2]: 46±0,5 fL
- MON [2]: 3,3±1%
- PLT [2]: 511±30 10x3/uL
- RBC [2]: 9,2±0,4 10x6/uL
- RDW [2]: 17,6±0,7%
- WBC [2]: 4,0±0,4 10x3/uL
- HCT [3, 8]: 34,6±1,6%
- HGB [3, 8]: 13,4±0,6 g/dL
- MCH [3, 8]: 18,2±0,4 pg
- MCHC [3, 8]: 38,6±0,5 g/dL
- MCV [3, 8]: 47±1,2 fL
- MPV [3, 8]: 4,9±0,1 fL
- PCT [3, 8]: 0,280±0,04%
- PDW [3, 8]: 25,6±3,8 fL
- RBC [3, 8]: 7,4±0,4 x106/uL
- RDW [3, 8]: 19,2±1,2%
- WBC [3, 8]: 6,1±2,1 x103/uL
- ALT [3, 9]: 31,1±10,7 U/L
- AST [3, 9]: 97,4±24,9 U/L
- creatinine [3, 9]: 5,33±1,21 umol/L
- urea [3, 9]: 7,65±0,54 mmol/L
- remaining activity at 0.001 µM (STS in MCF-7 cells): 38.9%
- remaining activity at 0.01 µM (STS in MCF-7 cells): 24.2 ± 1.45%
- remaining activity at 0.1 µM (STS in MCF-7 cells): 1 ± 0.04%
- IC50 (STS in MCF-7 cells; MCF-7 cells, substrate [3H]E1S, 3 nM): 2.95 ± 0.13 nM
- body weight of treated tumor-bearing mice (observation) [4]: An increase in body weight was observed
- tumor growth inhibition (TGI) ([4]; 5 days a week, 67NR tumor, N = 9, vs control group): did not show any significant effect
- mice responded to the treatment ([4]; nine mice/group): 6 mice poorly responded to the treatment
- mice with much larger tumor than the mean control volume ([4]; nine mice/group): 2 mice
- mice with tumor volume reduced by approx. 50% compared to the TV control ([4]; nine mice/group): 1 mice

Compound: NS(=O)(=O)Oc1ccc(-c2cn(-c3ccc(F)c(F)c3)nn2)cc1 [5f]
- remaining activity at 0.1 µM (STS in MCF-7 cells; [7]): 3 ± 0.14%

Compound: NS(=O)(=O)Oc1ccc(-c2cn(-c3ccc(F)cc3C(F)(F)F)nn2)cc1 [5h]
- remaining activity at 0.01 µM (STS in MCF-7 cells; [6]): 48.2 ± 3.37%

Compound: NS(=O)(=O)Oc1ccc(-c2cn(-c3ccc(OC(F)(F)F)cc3)nn2)cc1 [5i]
- remaining activity at 0.001 µM (STS in MCF-7 cells; [5]): 71.8 ± 4.67%
- remaining activity at 0.01 µM (STS in MCF-7 cells; [6]): 9.5 ± 0.48%
- remaining activity at 0.1 µM (STS in MCF-7 cells; [7]): 1%
- residual STS activity [%] 100 nM (STS in MCF-7 cells; [7]): 1.0%

Compound: NS(=O)(=O)Oc1ccc(-c2cn(-c3ccc(C(F)(F)F)cc3)nn2)cc1 [5j]
- remaining activity at 0.1 µM (STS in MCF-7 cells; [7]): < 5%

Compound: NS(=O)(=O)Oc1ccc(-c2cn(-c3ccccc3OC(F)(F)F)nn2)cc1 [5k]
- remaining activity at 0.1 µM (STS in MCF-7 cells; [7]): 15.5 ± 0.93%

Compound: NS(=O)(=O)Oc1ccc(-c2cn(-c3cccc(C(F)(F)F)c3)nn2)cc1 [5m]
- remaining activity at 0.01 µM (STS in MCF-7 cells; [6]): 59.9 ± 3.29%

Compound: Cc1cc(=O)oc2cc(OS(N)(=O)=O)ccc12 [COUMATE, reference compound]
- remaining activity at 0.1 µM (STS in MCF-7 cells): 51.8%
